# Values quoted from earlier work as cited in US7605152B2, “17-hydroxy-4-aza-androstan-3-ones as androgen receptor modulators” (priority 2002, dated 2009).
# How the values were obtained:
# [1] = after 7 years of treatment
# [2] = after a median of 22 months of treatment
Compound,increase in spinal BMD [1] [%],reduction in nonvertebral fractures [2] [%],reduction in spine fractures [2] [%]
"NCCCC(O)(P(=O)([O-])O)P(=O)(O)O.O.O.O.[Na+] [alendronate, (4-amino-1-hydroxybutylidene)-bis-phosphonate monosodium trihydrate]",11,–,–
"hPTH(1-34): human parathyroid hormone 1-34 fragment (SVSEIQLMHNLGKHLNSMERVEWLRKKLQDVHNF; Parathyroid hormone; UniProt P01270 32-65, looked up, fragment)",–,54,≥ 65
